For orientation: IC50 means the concentration at which inhibition is half-maximal.

The target of the assay is T1, Flag/GST-tagged recombinant human B-Raf (Homo sapiens, UniProt P15056).
T1 construct: Flag; GST; made in house; host or cells: Sf9 insect cells (B-Raf); E. coli (MEK1-GST)
T1 sequence (P15056 whole entry): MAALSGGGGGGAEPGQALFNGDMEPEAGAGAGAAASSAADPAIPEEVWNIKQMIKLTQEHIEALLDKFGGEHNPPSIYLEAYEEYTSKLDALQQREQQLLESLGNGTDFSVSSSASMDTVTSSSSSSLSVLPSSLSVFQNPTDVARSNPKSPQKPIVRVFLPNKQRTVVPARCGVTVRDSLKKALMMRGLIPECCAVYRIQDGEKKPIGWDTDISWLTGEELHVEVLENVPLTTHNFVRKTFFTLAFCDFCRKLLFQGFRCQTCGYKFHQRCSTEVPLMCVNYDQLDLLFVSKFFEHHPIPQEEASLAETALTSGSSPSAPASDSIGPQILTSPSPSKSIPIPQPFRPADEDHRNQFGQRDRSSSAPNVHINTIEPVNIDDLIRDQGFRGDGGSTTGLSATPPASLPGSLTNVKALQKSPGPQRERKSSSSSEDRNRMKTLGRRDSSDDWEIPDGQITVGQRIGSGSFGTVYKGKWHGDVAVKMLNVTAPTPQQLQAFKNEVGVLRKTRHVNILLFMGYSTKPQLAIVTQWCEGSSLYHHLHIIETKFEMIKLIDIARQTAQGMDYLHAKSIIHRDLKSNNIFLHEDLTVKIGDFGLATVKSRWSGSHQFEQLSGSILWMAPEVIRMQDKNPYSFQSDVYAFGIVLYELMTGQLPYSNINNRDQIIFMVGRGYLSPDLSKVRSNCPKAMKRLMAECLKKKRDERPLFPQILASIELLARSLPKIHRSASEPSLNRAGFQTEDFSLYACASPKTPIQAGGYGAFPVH
In words: B-Raf Kinase to MEK1 ELISA. The assay is classed as biochemical. The protocol:
B-Raf Kinase to MEK1 ELISA
B-Raf1 Kinase Assay Procedure: B-Raf-1 is used to phosphorylate GST-MEK1.
B-Raf Assay Stock Solutions:
1. Assay Dilution Buffer (ADB): 20 mM MOPS, pH 7.2, 25 mM β-glycerol phosphate, 5 mM EGTA, 1 mM sodium orthovanadate, 1 mM dithiothreitol, 0.01% Triton X-100.
2. Magnesium/ATP Cocktail: ADB solution (minus Triton X-100) plus 200 μM cold ATP and 40 mM magnesium chloride.
4. Active Kinase: Active B-Raf: used at 0.2 nM per assay point.
8. Anti pMEK Ab (Upstate)
9. Anti-rabbit Ab/Europium conjugate (Wallac)
1. Add 25 μl of ADB containing B-Raf and Mek per assay (i.e. per well of a 96 well plate)
2. Add 25 μl of 0.2 mM ATP and 40 mM magnesium chloride in Magnesium/ATP Cocktail.
3. Incubate for 45 minutes at RT with occasional shaking.
4. Transfer this mixture to an anti-GST Ab coated 96 well plate (Nunc Immunosorb plates coated o/n with a-GST. Plate freshly washed 3× with TBS-T before use.
5. Incubate o/n at 30° C. in cold room.
6. Wash 3× with TBST, add Anti-Phospho MEK1 (1:1000, dilution depends upon lot)
7. Incubate for 60 minutes at RT in a shaking incubator
8. Wash 3× with TBST, add Anti-rabbit Ab/Europium conjugate (Wallac) (1:500, dilution depends upon lot)
9. Incubate for 60 minutes at RT on a platform shaker.
10. Wash plate 3× with TBS-T
11. Add 100 μl of Wallac Delfia Enhancement Solution and shake for 10 minutes.
12. Read plates in Wallac Victor model Plate Reader.
13. Collect data analyze in Excel for single point and IC50 determinations.
The % inhibition was determined for each compound concentration.
A general note: An ELISA detects its analyte on a solid surface through an enzyme-linked reagent.
Take `COc1ccc(-n2ccc3c(-c4cccc(NC(=O)c5cccc(C(F)(F)F)c5)c4)ncnc32)cc1` [Compound 103, N-{3-[7-(4-methoxyphenyl)-7H-pyrrolo[2,3-d]pyrimidin-4-yl]phenyl}-3-(trifluoromethyl)benzamide]: the IC50 worked out at 5710 nM.
The figure for `CN(C)c1ccc(-n2ccc3c(-c4cccc(NC(=O)c5cccc(C(F)(F)F)c5)c4)ncnc32)cc1` [Compound 107, N-(3-{7-[4-(dimethylamino)phenyl]-7H-pyrrolo[2,3-d]pyrimidin-4-yl}phenyl)-3-(trifluoromethyl)benzamide] is 6570 nM; for `O=C(Nc1cccc(-c2ncnc3c2cc(-c2ccncc2)n3CCN2CCCC2)c1)c1cccc(C(F)(F)F)c1` [Compound 108, N-{3-[6-pyridin-4-yl-7-(2-pyrrolidin-1-ylethyl)-7H-pyrrolo[2,3-d]pyrimidin-4-yl]phenyl}-3-(trifluoromethyl)benzamide] it is 68.5 nM; for `CN(C)CCCn1c(-c2ccncc2)cc2c(-c3cccc(NC(=O)c4cccc(C(F)(F)F)c4)c3)ncnc21` [Compound 109, N-(3-{7-[3-(dimethylamino)propyl]-6-pyridin-4-yl-7H-pyrrolo[2,3-d]pyrimidin-4-yl}phenyl)-3-(trifluoromethyl)benzamide] it is 66.5 nM.
Then `CN(C)Cc1ccc(-n2ccc3c(-c4cccc(NC(=O)c5cccc(C(F)(F)F)c5)c4)ncnc32)cc1` [Compound 111, N-[3-(7-{4-[(dimethylamino)methyl]phenyl}-7H-pyrrolo[2,3-d]pyrimidin-4-yl)phenyl]-3-(trifluoromethyl)benzamide], with 432 nM; and `O=C(Nc1cccc(-c2ncnc3c2ccn3-c2ccc(CN3CCNCC3)cc2)c1)c1cccc(C(F)(F)F)c1` [Compound 112, N-(3-{7-[4-(piperazin-1-ylmethyl)phenyl]-7H-pyrrolo[2,3-d]pyrimidin-4-yl}phenyl)-3-(trifluoromethyl)benzamide], with 191 nM.

The values are drawn from US20090118276A1, “THIENOPYRIMIDINES, THIENOPYRIDINES, AND PYRROLOPYRIMIDINES AS B-RAF INHIBITORS” (priority 2007, published 2009).
